Patent publication US20200360364A1, “METHODS AND COMPOSITIONS FOR TREATING INFLAMMATORY OR AUTOIMMUNE DISEASES OR CONDITIONS USING CHRNA6 ACTIVATORS” (Flagship Pioneering Innovations V, Inc., priority 2018, published 2020)
Read-outs that look alike come from different tables or passages of the source.

Tested on: iTreg-mediated immunosuppression of CD8+ T-cell activation
Assay type: cell-based, human
Settings: for Fold Change % IFNγ+ CD8+ Relative to No Compound Condition: 2 nM final concentration

## CN1CCCC1c1cccnc1 (stereo not shown) [nicotine]
Donor BX23981, CD4+ T-cell:CD8+ T-cell ratio 1:2
  Fold Change % IFNγ+ CD8+ Relative to No Compound Condition: 1.20 ± 0.038
Donor BX23981, CD4+ T-cell:CD8+ T-cell ratio 2:1
  Fold Change % IFNγ+ CD8+ Relative to No Compound Condition: 0.88 ± 0.035
Donor BX24250, CD4+ T-cell:CD8+ T-cell ratio 1:2
  Fold Change % IFNγ+ CD8+ Relative to No Compound Condition: 0.84 ± 0.10
Donor BX24250, CD4+ T-cell:CD8+ T-cell ratio 2:1
  Fold Change % IFNγ+ CD8+ Relative to No Compound Condition: 1.07 ± 0.046
Donor BX26425, CD4+ T-cell:CD8+ T-cell ratio 1:1
  Fold Change % IFNγ+ CD8+ Relative to No Compound Condition: 0.31 ± 0.089
Donor BX26425, CD4+ T-cell:CD8+ T-cell ratio 1:2
  Fold Change % IFNγ+ CD8+ Relative to No Compound Condition: 0.42 ± 0.044
Donor BX26425, CD4+ T-cell:CD8+ T-cell ratio 2:1
  Fold Change % IFNγ+ CD8+ Relative to No Compound Condition: 0.18 ± 0.11
Donor BX26825, CD4+ T-cell:CD8+ T-cell ratio 1:1
  Fold Change % IFNγ+ CD8+ Relative to No Compound Condition: 0.70 ± 0.10
Donor BX26825, CD4+ T-cell:CD8+ T-cell ratio 1:2
  Fold Change % IFNγ+ CD8+ Relative to No Compound Condition: 0.91 ± 0.14
Donor BX27275, CD4+ T-cell:CD8+ T-cell ratio 1:1
  Fold Change % IFNγ+ CD8+ Relative to No Compound Condition: 1.16 ± 0.12
Donor BX27275, CD4+ T-cell:CD8+ T-cell ratio 2:1
  Fold Change % IFNγ+ CD8+ Relative to No Compound Condition: 1.38 ± 0.41
Donor BX27275, CD4+ T-cell:CD8+ T-cell ratio 2:1 (first line)
  Fold Change % IFNγ+ CD8+ Relative to No Compound Condition: 0.9 ± 0.12
Final concentration of 2 nM, added at beginning of iTreg/CD8+ co-culture, read three days after co-culture
  IFNγ+CD8+ T-cells in co-culture: trend of decreasing IFNγ+CD8+ T-cells
